Where a SMILES comes first, the peptide text is derived from it. [ ]: non-standard residue; d: D form. Chg = N[C@H](C(=O)O)C1CCCCC1; Phg = N[C@H](C(=O)O)c1ccccc1; Tle = CC(C)(C)[C@H](N)C(=O)O; dDab = NCC[C@@H](N)C(=O)O; Orn = NCCC[C@H](N)C(=O)O; Dab = NCC[C@H](N)C(=O)O; Nva = CCC[C@H](N)C(=O)O
Test system: human red blood cells (hRBC)
Experiment: Hemolysis of human red blood cells
Assay type: cell-based
Settings: red cells of human, 1 h, 100
In short: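 Washed fresh human erythrocytes (20% v/v, about 0.9×10^9 cells/ml final) incubated with peptide at 100 μg/ml for 1 h at 37° C with shaking. Supernatant OD540 read; hemolysis expressed relative to 2.5% Triton X-100 (100%) and PBS with 0.001% acetic acid (0%).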

Row | Structure (SMILES) | Hemolysis at 100 μg/ml [%]
1 | CC(C)C[C@@H]1NC(=O)[C@@H]2CCCN2C(=O)[C@H]2CCCN2C(=O)[C@H](CO)NC(=O)[C@H](C)NC(=O)[C@H](c2ccccc2)NC(=O)[C@H](CCN)NC(=O)[C@H](Cc2c[nH]c3ccccc23)NC(=O)[C@H](CCN)NC(=O)[C@@H](CCN)NC(=O)[C@H](CCCN)NC(=O)[C@H](CCN)NC(=O)[C@H](Cc2ccc(O)cc2)NC(=O)[C@H](CO)NC1=O [compound 107] (cyclo(LSY[Dab][Orn][dDab][Dab]W[Dab][Phg]AS[dP]P)) | 2
2 | CC(C)C[C@@H]1NC(=O)[C@@H]2CCCN2C(=O)[C@H]2CCCN2C(=O)[C@H](CO)NC(=O)[C@H](C)NC(=O)[C@H](Cc2c[nH]c3ccccc23)NC(=O)[C@H](CCN)NC(=O)[C@H](Cc2c[nH]c3ccccc23)NC(=O)[C@H](CCN)NC(=O)[C@@H](CCN)NC(=O)[C@H](CCCCN)NC(=O)[C@H](CCN)NC(=O)[C@H](Cc2ccc(O)cc2)NC(=O)[C@H](CO)NC1=O [compound 108] (cyclo(LSY[Dab]K[dDab][Dab]W[Dab]WAS[dP]P)) | 1
3 | CC(C)C[C@@H]1NC(=O)[C@@H]2CCCN2C(=O)[C@H]2CCCN2C(=O)[C@H](CO)NC(=O)[C@H](C)NC(=O)[C@H](Cc2c[nH]c3ccccc23)NC(=O)[C@H](CCN)NC(=O)[C@H](Cc2c[nH]c3ccccc23)NC(=O)[C@H](CCN)NC(=O)[C@@H](CCN)NC(=O)[C@H](CCCN)NC(=O)[C@H](CCN)NC(=O)[C@H](Cc2c[nH]c3ccccc23)NC(=O)[C@H](CO)NC1=O [compound 109] (cyclo(LSW[Dab][Orn][dDab][Dab]W[Dab]WAS[dP]P)) | 2
4 | CC[C@H](C)[C@@H]1NC(=O)[C@@H]2CCCN2C(=O)[C@H]2CCCN2C(=O)[C@H](CO)NC(=O)[C@H](C)NC(=O)[C@H](Cc2c[nH]c3ccccc23)NC(=O)[C@H](CCN)NC(=O)[C@H](Cc2c[nH]c3ccccc23)NC(=O)[C@H](CCN)NC(=O)[C@@H](CCN)NC(=O)[C@H](CCCN)NC(=O)[C@H](CCN)NC(=O)[C@H](Cc2ccc(O)cc2)NC(=O)[C@H](CO)NC1=O [compound 110] (cyclo(ISY[Dab][Orn][dDab][Dab]W[Dab]WAS[dP]P)) | 1
5 | CC(C)C[C@@H]1NC(=O)[C@@H]2CCCN2C(=O)[C@H]2CCCN2C(=O)[C@H](CO)NC(=O)[C@H](CO)NC(=O)[C@H](Cc2c[nH]c3ccccc23)NC(=O)[C@H](CCN)NC(=O)[C@H](Cc2c[nH]c3ccccc23)NC(=O)[C@H](CCN)NC(=O)[C@@H](CCN)NC(=O)[C@H](CCCN)NC(=O)[C@H](CCN)NC(=O)[C@H](Cc2ccc(O)cc2)NC(=O)[C@H](CO)NC1=O [compound 111] (cyclo(LSY[Dab][Orn][dDab][Dab]W[Dab]WSS[dP]P)) | 1
6 | CC(C)C[C@@H]1NC(=O)[C@@H]2CCCN2C(=O)[C@H]2CCCN2C(=O)[C@H](CO)NC(=O)[C@H](Cc2ccc(O)cc2)NC(=O)[C@H](C(C)(C)C)NC(=O)[C@H](CCN)NC(=O)[C@H](Cc2c[nH]c3ccccc23)NC(=O)[C@H](CCN)NC(=O)[C@@H](CCN)NC(=O)[C@H](CCCN)NC(=O)[C@H](CCN)NC(=O)[C@H](Cc2ccc(O)cc2)NC(=O)[C@H](CC(=O)O)NC1=O [compound 112] (cyclo(LDY[Dab][Orn][dDab][Dab]W[Dab][Tle]YS[dP]P)) | 0
7 | CC(C)C[C@@H]1NC(=O)[C@@H]2CCCN2C(=O)[C@H]2CCCN2C(=O)[C@H](CO)NC(=O)[C@H](Cc2ccc(O)cc2)NC(=O)[C@H](C(C)(C)C)NC(=O)[C@H](CCN)NC(=O)[C@H](Cc2c[nH]c3ccccc23)NC(=O)[C@H](CCN)NC(=O)[C@@H](CCN)NC(=O)[C@H](CCCN)NC(=O)[C@H](CCN)NC(=O)[C@H](Cc2ccc(O)cc2)NC(=O)[C@H]([C@@H](C)O)NC1=O [compound 113] (cyclo(LTY[Dab][Orn][dDab][Dab]W[Dab][Tle]YS[dP]P)) | 0
8 | CC(C)C[C@@H]1NC(=O)[C@@H]2CCCN2C(=O)[C@H]2CCCN2C(=O)[C@H](CO)NC(=O)[C@H](CCN)NC(=O)[C@H](C(C)(C)C)NC(=O)[C@H](CCN)NC(=O)[C@H](Cc2c[nH]c3ccccc23)NC(=O)[C@H](CCN)NC(=O)[C@@H](CCN)NC(=O)[C@H](CCCN)NC(=O)[C@H](CCN)NC(=O)[C@H](Cc2ccc(O)cc2)NC(=O)[C@H](CC(=O)O)NC1=O [compound 114] (cyclo(LDY[Dab][Orn][dDab][Dab]W[Dab][Tle][Dab]S[dP]P)) | 0.5
9 | CC(C)C[C@@H]1NC(=O)[C@@H]2CCCN2C(=O)[C@H]2CCCN2C(=O)[C@H](CO)NC(=O)[C@H](CCN)NC(=O)[C@H](C(C)(C)C)NC(=O)[C@H](CCN)NC(=O)[C@H](Cc2c[nH]c3ccccc23)NC(=O)[C@H](CCN)NC(=O)[C@@H](CCN)NC(=O)[C@H](CCCN)NC(=O)[C@H](CCN)NC(=O)[C@H](Cc2ccc(O)cc2)NC(=O)[C@H]([C@@H](C)O)NC1=O [compound 115] (cyclo(LTY[Dab][Orn][dDab][Dab]W[Dab][Tle][Dab]S[dP]P)) | 0
10 | CC(C)C[C@@H]1NC(=O)[C@@H]2CCCN2C(=O)[C@H]2CCCN2C(=O)[C@H](CO)NC(=O)[C@H](CO)NC(=O)[C@H](C2CCCCC2)NC(=O)[C@H](CCN)NC(=O)[C@H](Cc2c[nH]c3ccccc23)NC(=O)[C@H](CCN)NC(=O)[C@@H](CCN)NC(=O)[C@H](CCCN)NC(=O)[C@H](CCN)NC(=O)[C@H](Cc2ccc(O)cc2)NC(=O)[C@H](CO)NC1=O [compound 116] (cyclo(LSY[Dab][Orn][dDab][Dab]W[Dab][Chg]SS[dP]P)) | 3
11 | CC(C)C[C@@H]1NC(=O)[C@@H]2CCCN2C(=O)[C@H]2CCCN2C(=O)[C@H](CO)NC(=O)[C@H](CO)NC(=O)[C@H](C(C)(C)C)NC(=O)[C@H](CCN)NC(=O)[C@H](Cc2c[nH]c3ccccc23)NC(=O)[C@H](CCN)NC(=O)[C@@H](CCN)NC(=O)[C@H](CCCN)NC(=O)[C@H](CCN)NC(=O)[C@H](Cc2ccc(O)cc2)NC(=O)[C@H](CO)NC1=O [compound 117] (cyclo(LSY[Dab][Orn][dDab][Dab]W[Dab][Tle]SS[dP]P)) | 3
12 | CCC[C@@H]1NC(=O)[C@@H]2CCCN2C(=O)[C@H]2CCCN2C(=O)[C@H](CO)NC(=O)[C@H](CO)NC(=O)[C@H](C(C)(C)C)NC(=O)[C@H](CCN)NC(=O)[C@H](Cc2c[nH]c3ccccc23)NC(=O)[C@H](CCN)NC(=O)[C@@H](CCN)NC(=O)[C@H](CCCN)NC(=O)[C@H](CCN)NC(=O)[C@H](Cc2ccc(O)cc2)NC(=O)[C@H](CO)NC1=O [compound 118] (cyclo([Nva]SY[Dab][Orn][dDab][Dab]W[Dab][Tle]SS[dP]P)) | 1
13 | CC(C)C[C@@H]1NC(=O)[C@@H]2CCCN2C(=O)[C@H]2CCCN2C(=O)[C@H](CO)NC(=O)[C@H](CC(N)=O)NC(=O)[C@H](C(C)(C)C)NC(=O)[C@H](CCN)NC(=O)[C@H](Cc2c[nH]c3ccccc23)NC(=O)[C@H](CCN)NC(=O)[C@@H](CCN)NC(=O)[C@H](CCCN)NC(=O)[C@H](CCN)NC(=O)[C@H](Cc2ccc(O)cc2)NC(=O)[C@H]([C@@H](C)O)NC1=O [compound 119] (cyclo(LTY[Dab][Orn][dDab][Dab]W[Dab][Tle]NS[dP]P)) | 1
14 | CC(C)C[C@@H]1NC(=O)[C@@H]2CCCN2C(=O)[C@H]2CCCN2C(=O)[C@H](CO)NC(=O)[C@H]([C@@H](C)O)NC(=O)[C@H](C(C)(C)C)NC(=O)[C@H](CCN)NC(=O)[C@H](Cc2c[nH]c3ccccc23)NC(=O)[C@H](CCN)NC(=O)[C@@H](CCN)NC(=O)[C@H](CCCN)NC(=O)[C@H](CCN)NC(=O)[C@H](Cc2ccc(O)cc2)NC(=O)[C@H](CC(N)=O)NC1=O [compound 120] (cyclo(LNY[Dab][Orn][dDab][Dab]W[Dab][Tle]TS[dP]P)) | 0
15 | CC(C)C[C@@H]1NC(=O)[C@@H]2CCCN2C(=O)[C@H]2CCCN2C(=O)[C@H](CO)NC(=O)[C@H](CC(N)=O)NC(=O)[C@H](C(C)(C)C)NC(=O)[C@H](CCN)NC(=O)[C@H](Cc2c[nH]c3ccccc23)NC(=O)[C@H](CCN)NC(=O)[C@@H](CCN)NC(=O)[C@H](CCCN)NC(=O)[C@H](CCN)NC(=O)[C@H](Cc2ccc(O)cc2)NC(=O)[C@H](CC(N)=O)NC1=O [compound 121] (cyclo(LNY[Dab][Orn][dDab][Dab]W[Dab][Tle]NS[dP]P)) | 0
16 | CC(C)C[C@@H]1NC(=O)[C@@H]2CCCN2C(=O)[C@H]2CCCN2C(=O)[C@H](CO)NC(=O)[C@H]([C@@H](C)O)NC(=O)[C@H](C(C)(C)C)NC(=O)[C@H](CCN)NC(=O)[C@H](Cc2c[nH]c3ccccc23)NC(=O)[C@H](CCN)NC(=O)[C@@H](CCN)NC(=O)[C@H](CCCN)NC(=O)[C@H](CCN)NC(=O)[C@H](Cc2ccc(O)cc2)NC(=O)[C@H]([C@@H](C)O)NC1=O [compound 122] (cyclo(LTY[Dab][Orn][dDab][Dab]W[Dab][Tle]TS[dP]P)) | 0
17 | CC(C)C[C@@H]1NC(=O)[C@@H]2CCCN2C(=O)[C@H]2CCCN2C(=O)[C@H](CO)NC(=O)[C@H](CC(N)=O)NC(=O)[C@H](C(C)(C)C)NC(=O)[C@H](CCN)NC(=O)[C@H](Cc2c[nH]c3ccccc23)NC(=O)[C@H](CCN)NC(=O)[C@@H](CCN)NC(=O)[C@H](CCCN)NC(=O)[C@H](CCN)NC(=O)[C@H](Cc2ccc(O)cc2)NC(=O)[C@H](CC(=O)O)NC1=O [compound 123] (cyclo(LDY[Dab][Orn][dDab][Dab]W[Dab][Tle]NS[dP]P)) | 0
18 | CC(C)C[C@@H]1NC(=O)[C@@H]2CCCN2C(=O)[C@H]2CCCN2C(=O)[C@H]([C@@H](C)O)NC(=O)[C@H](CO)NC(=O)[C@H](C(C)(C)C)NC(=O)[C@H](CCN)NC(=O)[C@H](Cc2c[nH]c3ccccc23)NC(=O)[C@H](CCN)NC(=O)[C@@H](CCN)NC(=O)[C@H](CCN)NC(=O)[C@H](CCN)NC(=O)[C@H](Cc2ccc(O)cc2)NC(=O)[C@H]([C@@H](C)O)NC1=O [compound 124] (cyclo(LTY[Dab][Dab][dDab][Dab]W[Dab][Tle]ST[dP]P)) | 0.5
19 | CC[C@H](C)[C@@H]1NC(=O)[C@@H]2CCCN2C(=O)[C@H]2CCCN2C(=O)[C@H](CO)NC(=O)[C@H](C)NC(=O)[C@H](C(C)(C)C)NC(=O)[C@H](CCN)NC(=O)[C@H](Cc2c[nH]c3ccccc23)NC(=O)[C@H](CCN)NC(=O)[C@@H](CCN)NC(=O)[C@H](CCCN)NC(=O)[C@H](CCN)NC(=O)[C@H](Cc2ccc(O)cc2)NC(=O)[C@H](C)NC1=O [compound 125] (cyclo(IAY[Dab][Orn][dDab][Dab]W[Dab][Tle]AS[dP]P)) | 0

Reference: patent US9938322B2, “β-hairpin peptidomimetics” (priority 2013, dated 2018)
